Values quoted from earlier work as cited in patent publication US4127537A, “Novel tetracosapeptides, intermediates therefor and pharmaceutical compositions and methods employing said tetracosapeptides” (priority 1977, dated 1978).

Key:
[1] = system: brain opiate receptor sites; details: natural peptide; Bradbury et al., Nature 260, 793 (1976)
rat = details: injected directly into the brain of the rat; Belluzzi et al., Nature 260, 625 (1976)

## H-Tyr-Gly-Gly-Phe-Met-OH [methionine enkephalin]
[1]
  binding to partially purified brain opiate receptor sites: binds stereo-specifically
rat
  analgesic activity: weak analgesic agent of short duration
